These are literature values, as cited in patent US7388019B2, “3-amino-4-phenylbutanoic acid derivatives as dipeptidyl peptidase inhibitors for the treatment or prevention of diabetes” (Merck & Co., Inc., priority 2003, dated 2008).

The conditions of series [1]: rats.
For a further series, the target named is T1, DP-IV (Homo sapiens, UniProt P27487).
T1 construct: GRF is rapidly degraded in plasma to GRF[3-44]; from tissue
The conditions noted are these: plasma.

The conditions of series [2]: mouse, cyclophosphamide-induced neutropenia.

T1 sequence (P27487 39-766 limits assumed): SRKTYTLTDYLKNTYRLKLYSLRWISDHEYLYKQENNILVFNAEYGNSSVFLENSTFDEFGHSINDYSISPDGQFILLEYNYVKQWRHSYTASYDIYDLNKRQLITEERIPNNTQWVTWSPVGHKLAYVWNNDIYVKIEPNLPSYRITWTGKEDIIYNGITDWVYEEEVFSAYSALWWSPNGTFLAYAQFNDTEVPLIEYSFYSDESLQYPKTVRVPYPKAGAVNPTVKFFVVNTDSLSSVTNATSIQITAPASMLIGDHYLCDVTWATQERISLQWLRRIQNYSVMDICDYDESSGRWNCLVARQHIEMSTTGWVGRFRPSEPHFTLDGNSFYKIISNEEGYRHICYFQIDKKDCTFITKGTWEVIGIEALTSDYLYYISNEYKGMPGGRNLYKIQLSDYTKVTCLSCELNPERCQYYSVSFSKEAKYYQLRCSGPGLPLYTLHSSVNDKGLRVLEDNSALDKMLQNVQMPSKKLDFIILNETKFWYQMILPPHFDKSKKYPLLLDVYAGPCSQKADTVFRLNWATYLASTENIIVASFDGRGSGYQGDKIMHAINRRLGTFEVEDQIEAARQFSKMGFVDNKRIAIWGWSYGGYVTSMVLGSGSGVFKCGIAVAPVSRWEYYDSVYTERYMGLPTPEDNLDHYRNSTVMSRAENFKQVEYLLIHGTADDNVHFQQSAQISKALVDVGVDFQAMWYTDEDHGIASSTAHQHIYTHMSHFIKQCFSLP

Consider `CC(C)N1CCC(c2ccccc2)(c2ccccc2)CC1` [Prodipine, Pro-Pro-diphenyl-phosphonate], for which the cardiac allograft survival result in series [1] was “double cardiac allograft survival in rats from day 7 to day 14”.
Consider diprotin A, for which the “degradation of GRF to GRF[3-44]” value at DP-IV was “prevented”.
Regarding `CC(C)[C@H](N)C(=O)N1CCC[C@H]1B(O)O` [Val-Boro-Pro], the hematopoiesis entry in series [2] is on record as “stimulated hematopoiesis”.
